Laboratory results taken from patent US8329904B2, “Azacyclic derivatives” (Hoffmann-La Roche Inc., priority 2009, dated 2012).

Biological target: T1, human HSL (Homo sapiens, UniProt Q05469)
T1 construct: overlapping PCR to generate a full length human HSL ORF with a 3′-His6 tag; His6 (C); made in house; host or cells: High 5 insect cells (baculovirus, pFast-BAC)
T1 sequence (Q05469 1-1076): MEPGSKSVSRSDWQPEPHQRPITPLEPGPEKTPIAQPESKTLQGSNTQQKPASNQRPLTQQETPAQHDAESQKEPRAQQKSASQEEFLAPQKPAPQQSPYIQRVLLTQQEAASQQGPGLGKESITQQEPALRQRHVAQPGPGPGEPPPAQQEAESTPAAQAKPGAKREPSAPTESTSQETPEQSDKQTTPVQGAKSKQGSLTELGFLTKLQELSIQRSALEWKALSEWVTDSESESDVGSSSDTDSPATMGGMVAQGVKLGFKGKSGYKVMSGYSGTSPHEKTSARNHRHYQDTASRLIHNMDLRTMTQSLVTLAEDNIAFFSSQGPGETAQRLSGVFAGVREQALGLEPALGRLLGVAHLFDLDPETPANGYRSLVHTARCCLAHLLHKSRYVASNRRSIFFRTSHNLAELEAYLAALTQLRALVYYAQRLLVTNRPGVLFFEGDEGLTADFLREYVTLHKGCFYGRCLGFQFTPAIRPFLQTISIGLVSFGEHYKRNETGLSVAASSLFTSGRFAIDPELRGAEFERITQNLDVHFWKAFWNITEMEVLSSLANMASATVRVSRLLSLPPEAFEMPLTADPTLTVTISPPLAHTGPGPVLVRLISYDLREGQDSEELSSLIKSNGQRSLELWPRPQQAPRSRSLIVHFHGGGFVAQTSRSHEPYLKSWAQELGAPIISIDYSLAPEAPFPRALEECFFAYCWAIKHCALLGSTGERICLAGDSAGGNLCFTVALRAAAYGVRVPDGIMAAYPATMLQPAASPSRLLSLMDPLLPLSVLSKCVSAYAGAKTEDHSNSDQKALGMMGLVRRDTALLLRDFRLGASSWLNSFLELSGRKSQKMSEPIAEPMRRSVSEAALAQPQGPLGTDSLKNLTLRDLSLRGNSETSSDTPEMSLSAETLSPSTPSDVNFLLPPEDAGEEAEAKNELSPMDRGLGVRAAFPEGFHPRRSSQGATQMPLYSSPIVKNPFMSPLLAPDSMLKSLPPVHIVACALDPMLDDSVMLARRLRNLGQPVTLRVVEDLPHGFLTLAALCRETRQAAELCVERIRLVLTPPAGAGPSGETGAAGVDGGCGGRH
Experiment: Human Hormone-Sensitive Lipase (HSL) Enzyme Inhibition Assay
Assay type: biochemical
Details: colorimetric assay, 2,3-dimercapto-1-propanol tributyrate (DMPT) substrate, 37° C. for 20 minutes, absorbance at 405 nm; read-out: HSL hum IC50
Outline: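 Colorimetric thioester hydrolysis: compounds in DMSO series mixed with DMPT (1.5 mM) in MOPS pH 7.2 with BSA, then baculovirus-expressed His6-tagged full-length human HSL added, 37° C, 20 min. DTNB plus detergents added, 15 min room temperature, absorbance at 405 nm.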

SMILES	IC50 [nM]
CC(Oc1ccc(N2CCC3(CCN(S(=O)(=O)c4ccccc4Cl)CC3)C2=O)cc1)C(F)(F)F (centres unmarked) [Example 125, 8-(2-Chloro-benzenesulfonyl)-2-[4-(2,2,2-trifluoro-1-methyl-ethoxy)-phenyl]-2,8-diaza-spiro[4.5]decan-1-one]	20
CCn1ncc2cc(N3CCC4(CCN(S(=O)(=O)c5ccccc5Cl)CC4)C3=O)ccc21 [Example 126, 8-(2-Chloro-benzenesulfonyl)-2-(1-ethyl-1H-indazol-5-yl)-2,8-diaza-spiro[4.5]decan-1-one]	30
Cc1nc2ccc(N3CCC4(CCN(S(=O)(=O)c5ccccc5Cl)CC4)C3=O)cc2s1 [Example 127, 8-(2-Chloro-benzenesulfonyl)-2-(2-methyl-benzothiazol-6-yl)-2,8-diaza-spiro[4.5]decan-1-one]	60
O=C1N(c2ccc(OC3CCCC3)cc2)CCC12CCN(S(=O)(=O)c1ccccc1Cl)CC2 [Example 128, 8-(2-Chloro-benzenesulfonyl)-2-(4-cyclopentyloxy-phenyl)-2,8-diaza-spiro[4.5]decan-1-one]	20
O=C1N(c2ccc(OC3CCOC3)cc2)CCC12CCN(S(=O)(=O)c1ccccc1Cl)CC2 (centres unmarked) [Example 129, 8-(2-Chloro-benzenesulfonyl)-2-[4-(tetrahydro-furan-3-yloxy)-phenyl]-2,8-diaza-spiro[4.5]decan-1-one]	40
Cn1ncc2cc(N3CCC4(CCN(S(=O)(=O)c5ccccc5Cl)CC4)C3=O)ccc21 [Example 130, 8-(2-Chloro-benzenesulfonyl)-2-(1-methyl-1H-indazol-5-yl)-2,8-diaza-spiro[4.5]decan-1-one]	50
Cn1cc2cc(N3CCC4(CCN(S(=O)(=O)c5ccccc5Cl)CC4)C3=O)ccc2n1 [Example 131, 8-(2-Chloro-benzenesulfonyl)-2-(2-methyl-2H-indazol-5-yl)-2,8-diaza-spiro[4.5]decan-1-one]	570
O=C1N(c2ccc(Oc3cccnc3)cc2)CCC12CCN(S(=O)(=O)c1ccccc1Cl)CC2 [Example 132, 8-(2-Chloro-benzenesulfonyl)-2-[4-(pyridin-3-yloxy)-phenyl]-2,8-diaza-spiro[4.5]decan-1-one]	280
O=C1N(c2ccc(OCC3CCCC3)cc2)CCC12CCN(S(=O)(=O)c1ccccc1Cl)CC2 [Example 133, 8-(2-Chloro-benzenesulfonyl)-2-(4-cyclopentylmethoxy-phenyl)-2,8-diaza-spiro[4.5]decan-1-one]	600
CCOC(=O)Cc1ccc(N2CCC3(CCN(S(=O)(=O)c4ccccc4Cl)CC3)C2=O)cc1 [Example 134, {4-[8-(2-Chloro-benzenesulfonyl)-1-oxo-2,8-diaza-spiro[4.5]dec-2-yl]-phenyl}-acetic acid ethyl ester]	50
N#CCc1ccc(N2CCC3(CCN(S(=O)(=O)c4ccccc4Cl)CC3)C2=O)cc1 [Example 135, {4-[8-(2-Chloro-benzenesulfonyl)-1-oxo-2,8-diaza-spiro[4.5]dec-2-yl]-phenyl}-acetonitrile]	90
Cc1nc(Cc2ccc(N3CCC4(CCN(S(=O)(=O)c5ccccc5Cl)CC4)C3=O)cc2)no1 [Example 136, 8-(2-Chloro-benzenesulfonyl)-2-[4-(5-methyl-[1,2,4]oxadiazol-3-ylmethyl)-phenyl]-2,8-diaza-spiro[4.5]decan-1-one]	80
Cc1nnc(Cc2ccc(N3CCC4(CCN(S(=O)(=O)c5ccccc5Cl)CC4)C3=O)cc2)o1 [Example 137, 8-(2-Chloro-benzenesulfonyl)-2-[4-(5-methyl-[1,3,4]oxadiazol-2-ylmethyl)-phenyl]-2,8-diaza-spiro[4.5]decan-1-one]	220
O=C1N(c2ccc(Cc3nnc(C(F)(F)F)o3)cc2)CCC12CCN(S(=O)(=O)c1ccccc1Cl)CC2 [Example 138, 8-(2-Chloro-benzenesulfonyl)-2-[4-(5-trifluoromethyl-[1,3,4]oxadiazol-2-ylmethyl)-phenyl]-2,8-diaza-spiro[4.5]decan-1-one]	530
CC(C)(C)CS(=O)(=O)N1CCC2(CCN(c3ccc(OCCC(F)(F)F)cc3)C2=O)CC1 [Example 139, 8-(Neopentylsulfonyl)-2-(4-(3,3,3-trifluoropropoxy)phenyl)-2,8-diazaspiro[4.5]decan-1-one]	310
CS(=O)(=O)c1ccc(N2CCC3(CCN(S(=O)(=O)c4ccccc4Cl)CC3)C2=O)cc1 [Example 140, 8-(2-Chloro-benzenesulfonyl)-2-(4-methanesulfonyl-phenyl)-2,8-diaza-spiro[4.5]decan-1-one]	40
O=C1N(c2ccc(CO)cc2)CCC12CCN(S(=O)(=O)c1ccccc1Cl)CC2 [Example 141, 8-(2-Chloro-benzenesulfonyl)-2-(4-hydroxymethyl-phenyl)-2,8-diaza-spiro[4.5]decan-1-one]	360
COCc1ccc(N2CCC3(CCN(S(=O)(=O)c4ccccc4Cl)CC3)C2=O)cc1 [Example 142, 8-(2-Chloro-benzenesulfonyl)-2-(4-methoxymethyl-phenyl)-2,8-diaza-spiro[4.5]decan-1-one]	40
CCc1ccc(N2CCC3(CCN(S(=O)(=O)c4ccccc4N4CCCC4=O)CC3)C2=O)cc1 [Example 143, 2-(4-Ethyl-phenyl)-8-[2-(2-oxo-pyrrolidin-1-yl)-benzenesulfonyl]-2,8-diaza-spiro[4.5]decan-1-one]	170
COC/C=C/c1ccc(N2CCC3(CCN(S(=O)(=O)c4ccccc4OC(F)(F)F)CC3)C2=O)cc1 [Example 144, 2-[4-((E)-3-Methoxy-propenyl)-phenyl]-8-(2-trifluoromethoxy-benzenesulfonyl)-2,8-diaza-spiro[4.5]decan-1-one]	50
O=C1N(c2ccc(/C=C/C3CC3)cc2)CCC12CCN(S(=O)(=O)c1ccccc1OC(F)(F)F)CC2 [Example 145, 2-[4-((E)-2-Cyclopropyl-vinyl)-phenyl]-8-(2-trifluoromethoxy-benzenesulfonyl)-2,8-diaza-spiro[4.5]decan-1-one]	120
COCCCc1ccc(N2CCC3(CCN(S(=O)(=O)c4ccccc4OC(F)(F)F)CC3)C2=O)cc1 [Example 146, 2-[4-(3-Methoxy-propyl)-phenyl]-8-(2-trifluoromethoxy-benzenesulfonyl)-2,8-diaza-spiro[4.5]decan-1-one]	50
O=C1N(c2ccc(CCC3CC3)cc2)CCC12CCN(S(=O)(=O)c1ccccc1OC(F)(F)F)CC2 [Example 147, 2-[4-(2-Cyclopropyl-ethyl)-phenyl]-8-(2-trifluoromethoxy-benzenesulfonyl)-2,8-diaza-spiro[4.5]decan-1-one]	60
O=C1N(c2ccc(COCC3CC3)cc2)CCC12CCN(S(=O)(=O)c1ccccc1Cl)CC2 [Example 148, 8-(2-Chloro-benzenesulfonyl)-2-(4-cyclopropylmethoxymethyl-phenyl)-2,8-diaza-spiro[4.5]decan-1-ones]	90
CCOCc1ccc(N2CCC3(CCN(S(=O)(=O)c4ccccc4Cl)CC3)C2=O)cc1 [Example 149, 8-(2-Chloro-benzenesulfonyl)-2-(4-ethoxymethyl-phenyl)-2,8-diaza-spiro[4.5]decan-1-one]	40
COC(=O)c1ccc(N2CCC3(CCN(S(=O)(=O)c4ccccc4Cl)CC3)C2=O)cc1 [Example 150, 8 4-[8-(2-Chloro-benzenesulfonyl)-1-oxo-2,8-diaza-spiro[4.5]dec-2-yl]-benzoic acid methyl ester]	40
CC(=O)c1ccc(N2CCC3(CCN(S(=O)(=O)c4ccccc4Cl)CC3)C2=O)cc1 [Example 151, 2-(4-Acetyl-phenyl)-8-(2-chloro-benzenesulfonyl)-2,8-diaza-spiro[4.5]decan-1-one]	50
O=C1N(c2ccc(C(O)C(F)(F)F)cc2)CCC12CCN(S(=O)(=O)c1ccccc1Cl)CC2 (centres unmarked) [Example 152, 8-(2-Chloro-benzenesulfonyl)-2-[4-(2,2,2-trifluoro-1-hydroxy-ethyl)-phenyl]-2,8-diaza-spiro[4.5]decan-1-one]	20
CC(O)c1ccc(N2CCC3(CCN(S(=O)(=O)c4ccccc4Cl)CC3)C2=O)cc1 (centres unmarked) [Example 153, 8-(2-Chloro-benzenesulfonyl)-2-[4-(1-hydroxy-ethyl)-phenyl]-2,8-diaza-spiro[4.5]decan-1-one]	100
